Legend:
bovine thrombin [1] = molecular target: T1, bovine thrombin (Bos taurus, UniProt P00735); assay: Antithrombin activity: coagulation inhibition of rat plasma; assay type: biochemical
T1 construct: purchased Mochida Co., Ltd
Experimental: (ii) The measuring method for coagulation inhibition of rat plasma The compound of the present invention is dissolved in water or saline to form a solution of a total volume of 0.1 ml. To the solution, 0.1 ml of rat plasma is added and the mixture is incubated at 37° C. for 30 seconds. Then, 0.1 ml of bovine thrombin (8 units/ml, Mochida Co., Ltd.) is added and the coagulation time is measured at 37° C. The concentration of the inhibitor (i.e., the compound of the present invention) which doubles the coagulation time that obtained in the absence of the inhibitor was determined as I50 (μm).

bovine thrombin [2] = molecular target: T1, bovine thrombin; assay: Antithrombin activity: hydrolysis inhibition of synthetic substrate (S-2238); assay type: biochemical
Experimental: Determination of antithrombin activity
(i) The measuring method for hydrolysis inhibition of synthetic substrate (S-2238)
S-2238 (manufactured by Kabi Co.) is dissolved in a Tris hydrochloric acid buffer solution (pH: 8.3) to prepare a S-2238-0.4M Tris hydrochloric acid solution having a concentration of 80 μm. To 175 μl of the solution, an aqueous solution of a compound of the present invention (515 μl) is added. After incubating at 37° C. for one minute, 10 μl of a bovine thrombin solution (4.4 units/ml, manufactured by Mochida Co., Ltd.) is added. A hydrolysis reaction rate of the substrate is determined by measuring a change in absorbance of 405 nm at 37° C.

bovine trypsin = molecular target: T2, bovine trypsin (Bos taurus, UniProt P00760); assay: Antitrypsin activity: hydrolysis inhibition of synthetic substrate (S-2222); assay type: biochemical; details: S-2222 substrate, pH 8.3, 37° C., absorbance 405 nm, read-out: Antitrypsin activity I50
T2 construct: purchased Sigma Co
T2 sequence (P00760 24-246): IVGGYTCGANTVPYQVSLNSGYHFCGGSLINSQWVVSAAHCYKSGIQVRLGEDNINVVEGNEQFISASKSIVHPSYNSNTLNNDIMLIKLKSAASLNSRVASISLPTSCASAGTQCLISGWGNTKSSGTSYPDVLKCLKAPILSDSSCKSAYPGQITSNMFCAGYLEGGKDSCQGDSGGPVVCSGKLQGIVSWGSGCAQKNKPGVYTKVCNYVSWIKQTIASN
Experimental: Determination of Antitrypsin activity
(i) The measuring method for hydrolysis inhibition of synthetic substrate (S-2222)
S-2222 (manufactured by Kabi Co.) is dissolved in a Tris hydrochloric acid (pH: 8.3) to prepare a S-2222-0.4M Tris hydrochloric acid solution having a concentration of 400 μm. To the solution (175 μl), 515 μl of a solution of a compound of the present invention is added. After incubating at 37° C. for one minute, 10 μl of a bovine trypsin solution (1 to 2 mg/ml, manufactured by Sigma Co.) is added. A hydrolysis reaction rate of the substrate is determined by measuring a change in absorbance of 405 nm at 37° C.

[3] = J. Med. Chem., 33, 1729 (1990); cited from earlier work

SMILES | IC50 (bovine thrombin [1]) | IC50 (bovine thrombin [2]) | IC50 (bovine trypsin) | stability in the living body [3]
COC(=O)c1ccc(CC[C@@H](NS(C)(=O)=O)C(=O)N2CCC[C@H]2C(=O)NCc2ccc(C(=N)N)cc2)cc1 [compound 8] | 122 nM |  |  | 
N=C(N)c1ccc(CNC(=O)[C@@H]2CCCN2C(=O)CCCc2ccccc2)cc1 [compound 13] | 590 nM | 720 nM |  | 
CCCCC[C@@H](NS(=O)(=O)CC(=O)O)C(=O)N1CCC[C@H]1C(=O)NCc1ccc(C(=N)N)cc1 [compound 12] | 83 nM |  |  | 
N[C@H]1CC[C@H](CNC(=O)[C@@H]2CCCN2C(=O)[C@H](O)c2ccccc2)CC1 [compound 62] | 88 nM |  |  | 
CC(C)OC(=O)N[C@@H](C(=O)N1CCC[C@H]1C(=O)NC[C@H]1CC[C@H](C(=N)N)CC1)C1CCCCC1 [compound 21] |  | 21 nM | 1000 nM | 
NC(=NO)c1ccc(CNC(=O)[C@@H]2CCCN2C(=O)Cc2ccccc2)cc1 [compound 25] | > 300000 nM |  |  | 
CCOC(=O)N[C@H](CC(CC)CC)C(=O)N1CCC[C@H]1C(=O)NC[C@H]1CC[C@H](C(=N)N)CC1 [compound 22] |  | 14 nM | 940 nM | 
CCOC(=O)N[C@H](CC1CCCCC1)C(=O)N1CCC[C@H]1C(=O)NC[C@H]1CC[C@H](C(=N)N)CC1 [compound 16] |  | 21 nM | 1700 nM | 
N[C@H]1CC[C@H](CNC(=O)[C@@H]2CCCN2C(=O)[C@H](CCC(=O)O)NS(=O)(=O)c2ccccc2)CC1 [compound 54] | 230 nM |  |  | 
CS(=O)(=O)N[C@H](Cc1ccccc1)C(=O)N1CCC[C@H]1C(=O)NC[C@H]1CC[C@H](NC(=N)N)CC1 [compound 67] | 81 nM | 560 nM | 20000 nM | 
N=C(N)NCCC[C@@H](C=O)NC(=O)[C@@H]1CCCN1C(=O)[C@H](N)Cc1ccccc1 [D-phenylalanyl-L-prolyl-L-arginal] |  |  |  | fairly unstable
CS(=O)(=O)N[C@@H](C(=O)N1CCC[C@H]1C(=O)NC[C@H]1CC[C@H](N)CC1)C1CCCCC1 [compound 53] | 59 nM | 81 nM | 1400 nM | 
CS(=O)(=O)N[C@H](COc1cccc(C(=O)O)c1)C(=O)N1CCC[C@H]1C(=O)NCc1ccc(C(=N)N)cc1 [compound 9] | 110 nM |  |  | 
CC(C)OC(=O)N[C@H](CC(C)(C)C)C(=O)N1CCC[C@H]1C(=O)NC[C@H]1CC[C@H](N)CC1 [compound 56] | 80 nM | 130 nM | 14000 nM | 
CCOC(=O)N[C@H](Cc1ccccc1)C(=O)N1CCC[C@H]1C(=O)NC[C@H]1CC[C@H](N)CC1 [compound 57] | 82 nM |  |  | 
CCOC(=O)N[C@H](CC(C)(C)C)C(=O)N1CCC[C@H]1C(=O)NC[C@H]1CC[C@H](N)CC1 [compound 64] | 130 nM |  |  | 
N[C@H](Cc1ccccc1)C(=O)N1CCC[C@H]1C(=O)NC[C@H]1CC[C@H](N)CC1 [compound 58] | 97 nM |  |  | 
CS(=O)(=O)N[C@H](COc1ccccc1C(=O)OCc1ccccc1)C(=O)N1CCC[C@H]1C(=O)NCc1ccc(C(=N)N)cc1 [compound 10] | 170 nM |  |  | 

The remaining molecules from weak to strong by IC50 (bovine thrombin [1]), led by results:

IC50 (bovine thrombin [1]) | IC50 (bovine thrombin [2]) | IC50 (bovine trypsin) | SMILES | stability in the living body [3]
58 nM | 17 nM | 3600 nM | CC(C)(C)C[C@@H](NC(=O)OC(C)(C)C)C(=O)N1CCC[C@H]1C(=O)NC[C@H]1CC[C@H](C(=N)N)CC1 [compound 23] | 
56 nM |  |  | N[C@H]1CC[C@H](CNC(=O)[C@@H]2CCCN2C(=O)[C@H](O)C2CCCCC2)CC1 [compound 61] | 
56 nM |  |  | N=C(N)c1ccc(CNC(=O)[C@@H]2CCCN2C(=O)[C@@H](Cc2ccccc2)NC=O)cc1 [compound 6] | 
53 nM | 15 nM | 3200 nM | CC(C)OC(=O)N[C@H](CC(C)(C)C)C(=O)N1CCC[C@H]1C(=O)NC[C@H]1CC[C@H](C(=N)N)CC1 [compound 17] | 
48 nM |  |  | CSCC[C@@H](NS(C)(=O)=O)C(=O)N1CCC[C@H]1C(=O)NCc1ccc(C(=N)N)cc1 [compound 5] | 
46 nM |  |  | CS(=O)(=O)N[C@@H](C(=O)N1CCC[C@H]1C(=O)NCc1ccc(C(=N)N)cc1)C1CCCCC1 [compound 1] | 
45 nM | 130 nM | 14000 nM | CS(=O)(=O)N[C@H](Cc1ccccc1)C(=O)N1CCC[C@H]1C(=O)NC[C@H]1CC[C@H](N)CC1 [compound 52] | 
38 nM | 11 nM | 2200 nM | CCOC(=O)N[C@H](CC(C)(C)C)C(=O)N1CCC[C@H]1C(=O)NC[C@H]1CC[C@H](C(=N)N)CC1 [compound 15] | 
31 nM |  |  | CC(C)C[C@@H](NS(C)(=O)=O)C(=O)N1CCC[C@H]1C(=O)NC[C@H]1CC[C@H](C(=N)N)CC1 [compound 19] | 
30 nM |  |  | CCCC[C@@H](NS(C)(=O)=O)C(=O)N1CCC[C@H]1C(=O)NCc1ccc(C(=N)N)cc1 [compound 7] | 
30 nM |  |  | CC(C)(C)C[C@@H](NS(C)(=O)=O)C(=O)N1CCC[C@H]1C(=O)NCc1ccc(C(=N)N)cc1 [compound 2] | 
28 nM |  |  | CS(=O)(=O)N[C@H](CC1CCCCC1)C(=O)N1CCC[C@H]1C(=O)NC[C@H]1CC[C@H](C(=N)N)CC1 [compound 20] | 
21 nM | 7.6 nM | 40 nM | CS(=O)(=O)N[C@H](Cc1ccccc1)C(=O)N1CCC[C@H]1C(=O)NCc1ccc(C(=N)N)cc1 [compound 4] | 
